One data set has as its target C-Kit (Homo sapiens, UniProt P10721). Nature of the data set: C-Kit-isolated kinase-inhibition test. Format: biochemical. The conditions noted are these: 10 minutes incubation. On the procedure:
C-Kit-Isolated Kinase-Inhibition Test
Assay Solutions Substrate Solutions for 125 Assays:
10 μl of ATP (37.5 μM), 25 μCi of γ33P-ATP (˜+2.5 μl of Amersham redivue solution) and 10 μl of poly-(glu,tyr) are mixed with 1.23 ml of solvent (1×).
The compounds are brought to the desired concentration in the solvent (1×).
The corresponding enzymatic preparation is brought to the necessary concentration with the solvent (1×) to obtain 1.24 ml. Then, 12.5 μl of sodium vanadate solution is added.
The components are added in the following sequence to a microtiter plate with round or stippled floors:
10 μl of the inhibitor in 3× final concentration,
10 μl of substrate mixture,
said components are mixed, and the reaction is started by adding:
10 μl of enzyme preparation.
The batch is incubated for 10 minutes and then brought to a halt by adding 10 μl of stop solution. 10 μl of the thus treated batch is added to the phosphocellulose filter, rewashed in phosphoric acid, then dried and then melted in a meltilex scintillator and measured.

The target in another data set is KDR kinase (Homo sapiens, UniProt P35968). Nature of the data set: Inhibition of the KDR kinase activity (33P-ATP, poly-(Glu4Tyr) filter assay). Format: biochemical. The note with it: 10 minutes at room temperature. On the procedure: Solutions Required for the Tests
• Stock solution A: 3 mmol of ATP in water, pH 7.0 (−70° C.) • Stock solution B: g-33P-ATP 1 mCi/100 μl • Stock solution C: poly-(Glu4Tyr) 10 mg/ml in water Solution for Dilutions • Substrate solvent: 10 mmol of DTT, 10 mmol of manganese chloride, 100 mmol of magnesium chloride • Enzyme solution: 120 mmol of tris/HCl, pH 7.5, 10 μM of sodium vanadium oxide Sample Application 1 Inhibition of the KDR Kinase Activity in the Presence of the Compounds According to the Invention
In a microtiter plate (without protein binding) that tapers to a point, 10 μl of substrate mix (10 μl of volume of ATP stock solution A+25 μCi of g-33P-ATP (about 2.5 μl of stock solution B)+30 μl of poly-(Glu4Tyr) stock solution C+1.21 ml of substrate solvent), 10 μl of inhibitor solution (substances corresponding to the dilutions, 3% DMSO in substrate solvent as a control) and 10 μl of enzyme solution (11.25 μg of enzyme stock solution (KDR or FLT-1 kinase) are added at 4° C. in 1.25 ml of enzyme solution (dilute). It is thoroughly mixed and incubated for 10 minutes at room temperature. Then, 10 μl of stop solution (250 mmol of EDTA, pH 7.0) is added, mixed, and 10 μl of the solution is transferred to a P 81 phosphocellulose filter. Then, it is washed several times in 0.1 M phosphoric acid. The filter paper is dried, coated with Meltilex and measured in a microbeta counter.
The IC50 values are determined from the inhibitor concentration that is necessary to inhibit the phosphate incorporation to 50% of the uninhibited incorporation after removal of the blank reading (EDTA-stopped reaction).

The structures appear in SMILES notation.

Sequence of KDR kinase (P35968 20-1356): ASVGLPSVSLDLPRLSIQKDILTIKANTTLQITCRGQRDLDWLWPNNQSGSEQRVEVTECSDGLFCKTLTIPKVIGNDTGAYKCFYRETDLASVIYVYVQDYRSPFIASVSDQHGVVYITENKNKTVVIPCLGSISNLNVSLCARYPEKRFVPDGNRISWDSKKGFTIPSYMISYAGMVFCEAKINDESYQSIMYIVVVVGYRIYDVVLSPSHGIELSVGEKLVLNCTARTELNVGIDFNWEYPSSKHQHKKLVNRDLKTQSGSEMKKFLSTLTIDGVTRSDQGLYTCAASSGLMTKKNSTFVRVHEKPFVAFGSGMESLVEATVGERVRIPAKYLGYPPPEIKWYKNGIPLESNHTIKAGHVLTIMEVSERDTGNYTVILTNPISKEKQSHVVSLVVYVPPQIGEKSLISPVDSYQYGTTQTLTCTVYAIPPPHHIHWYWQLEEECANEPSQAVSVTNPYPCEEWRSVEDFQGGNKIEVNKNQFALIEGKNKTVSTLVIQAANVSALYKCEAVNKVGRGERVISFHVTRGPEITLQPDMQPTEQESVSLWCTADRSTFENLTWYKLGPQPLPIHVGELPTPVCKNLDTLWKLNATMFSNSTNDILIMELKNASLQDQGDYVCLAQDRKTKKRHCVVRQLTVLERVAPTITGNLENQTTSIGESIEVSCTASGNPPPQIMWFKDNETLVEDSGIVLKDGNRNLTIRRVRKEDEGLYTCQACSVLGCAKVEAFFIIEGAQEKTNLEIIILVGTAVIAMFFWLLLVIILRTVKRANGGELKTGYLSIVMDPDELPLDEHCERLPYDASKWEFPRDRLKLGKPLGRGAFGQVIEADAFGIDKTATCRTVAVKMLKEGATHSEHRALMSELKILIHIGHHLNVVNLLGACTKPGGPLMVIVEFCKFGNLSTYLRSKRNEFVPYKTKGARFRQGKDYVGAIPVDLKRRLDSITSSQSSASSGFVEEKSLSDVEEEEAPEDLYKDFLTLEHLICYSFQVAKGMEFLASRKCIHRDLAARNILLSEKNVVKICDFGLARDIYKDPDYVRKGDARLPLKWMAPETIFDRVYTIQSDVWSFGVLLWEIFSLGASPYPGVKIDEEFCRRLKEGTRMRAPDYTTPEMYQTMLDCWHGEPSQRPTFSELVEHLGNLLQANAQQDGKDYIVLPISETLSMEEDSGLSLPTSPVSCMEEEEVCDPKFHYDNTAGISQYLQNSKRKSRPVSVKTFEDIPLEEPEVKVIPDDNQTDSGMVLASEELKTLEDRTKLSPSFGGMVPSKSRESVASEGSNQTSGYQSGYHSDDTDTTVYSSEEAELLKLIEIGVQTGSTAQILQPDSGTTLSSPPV
Sequence of C-Kit (P10721 26-976): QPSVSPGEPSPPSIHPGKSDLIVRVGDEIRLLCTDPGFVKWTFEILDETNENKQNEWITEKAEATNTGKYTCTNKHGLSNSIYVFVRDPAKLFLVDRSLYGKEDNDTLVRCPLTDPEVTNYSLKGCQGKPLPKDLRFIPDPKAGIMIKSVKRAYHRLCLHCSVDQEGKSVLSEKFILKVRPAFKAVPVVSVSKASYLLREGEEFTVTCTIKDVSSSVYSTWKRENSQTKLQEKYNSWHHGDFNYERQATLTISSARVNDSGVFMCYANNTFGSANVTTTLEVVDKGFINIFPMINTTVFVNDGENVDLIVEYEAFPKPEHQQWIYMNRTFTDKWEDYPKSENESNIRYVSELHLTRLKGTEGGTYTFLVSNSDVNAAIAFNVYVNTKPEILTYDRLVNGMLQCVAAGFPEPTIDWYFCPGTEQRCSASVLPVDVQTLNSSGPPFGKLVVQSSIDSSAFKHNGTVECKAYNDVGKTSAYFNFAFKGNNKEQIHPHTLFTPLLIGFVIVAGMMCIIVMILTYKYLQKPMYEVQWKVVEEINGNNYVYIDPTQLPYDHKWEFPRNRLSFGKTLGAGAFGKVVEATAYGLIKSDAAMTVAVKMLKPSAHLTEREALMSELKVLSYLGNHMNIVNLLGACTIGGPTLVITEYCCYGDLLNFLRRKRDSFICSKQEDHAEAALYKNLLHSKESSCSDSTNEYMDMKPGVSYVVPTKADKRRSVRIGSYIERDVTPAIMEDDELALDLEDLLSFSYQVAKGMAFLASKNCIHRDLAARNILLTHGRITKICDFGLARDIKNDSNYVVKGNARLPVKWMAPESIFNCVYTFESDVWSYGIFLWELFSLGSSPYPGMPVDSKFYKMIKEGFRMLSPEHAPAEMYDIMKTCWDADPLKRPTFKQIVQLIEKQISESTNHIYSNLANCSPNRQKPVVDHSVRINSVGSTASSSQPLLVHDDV

As to `O=C(Nc1cc2ccccc2oc1=O)c1ccccc1NCc1ccncc1` [Example 1, N-[2-Oxo-2H-1-benzopyran-3-yl-]-2-[(4-pyridyl)methyl]amino-benzoic acid amide], the concentration for half-maximal inhibition (IC50) was 6000 nM against C-Kit and 3 nM on KDR kinase.
For `O=C(Nc1cc2cn[nH]c2cc1Cl)c1ccccc1NCc1ccncc1` [Example 2, N-(6-Chloroindazol-5-yl)-2-[(4-pyridyl)methyl]amino-benzoic acid amide] the same measures were more than 10000 nM and 200 nM.
Compound `Cc1cc2oc(=O)ccc2cc1NC(=O)c1ccccc1NCc1ccncc1` [Example 3] returned a melting point of 191.2 °C. The same compound displayed an IC50 against C-Kit of 8000 nM. The same compound showed an IC50 against KDR kinase of 30 nM.
In the same order, the values of `COc1ccc2cc(NC(=O)c3ccccc3NCc3ccncc3)c(=O)oc2c1` [Example 5] are 171 to 172 °C, more than 10000 nM and 10 nM.
For `O=C(Nc1cc2cc(Cl)ccc2oc1=O)c1ccccc1NCc1ccncc1` [Example 6], the melting point lay in the range of 182 to 184 °C. In addition, the IC50 on KDR kinase amounted to 200 nM.
Consider `O=C(Nc1cc2cc(Br)ccc2oc1=O)c1ccccc1NCc1ccncc1` [Example 7], for which the melting point lay within 198 to 200 °C. At C-Kit, the IC50 was more than 10000 nM. This compound registered an IC50 against KDR kinase of 200 nM.
`Cc1cc2cn[nH]c2cc1NC(=O)c1ccccc1NCc1ccncc1` [Example 9] displayed an IC50 on KDR kinase of 40 nM.
`O=C(Nc1cc2[nH]ncc2cc1Cl)c1ccccc1NCc1ccncc1` [Example 10] returned a melting point of 236.7 °C. The compound also gave an IC50 at C-Kit of more than 10000 nM. Also, half-maximal inhibition against KDR kinase (IC50) was put at 10 nM.
In the same order, the values of `Cc1cc2[nH]ncc2cc1NC(=O)c1ccccc1NCc1ccncc1` [Example 11] are 224.2 °C, more than 10000 nM and 1000 nM.
In the same order, the values of `COc1ccc(C(F)(F)F)cc1NC(=O)c1ccccc1NCc1ccncc1` [Example 13] are 135 °C, 5000 nM and 50 nM.
For `O=C(Nc1cc(C(F)(F)F)ccc1Cl)c1ccccc1NCc1ccncc1` [Example 14] the same measures were 105 °C, 5000 nM and 1 nM.
Consider `O=C(Nc1cc(C(F)(F)F)ccc1F)c1ccccc1NCc1ccncc1` [Example 15], for which the values for the IC50 at C-Kit and against KDR kinase were 2000 nM and 2 nM, respectively.
`O=C(Nc1cc(C(F)(F)F)ccc1C(F)(F)F)c1ccccc1NCc1ccncc1` [Example 17] displayed a melting point of 68 °C. On C-Kit, the concentration for half-maximal inhibition (IC50) was more than 10000 nM.
Consider `O=C(Nc1ncc2ccccc2c1Br)c1ccccc1NCc1ccncc1` [Example 26], for which the melting point stood at 135.8 °C. The half-maximal inhibitory concentration (IC50) on C-Kit worked out at 2000 nM. Moreover, the IC50 against KDR kinase came to 1 nM.
In the same order, the values of `Cc1cc2cc(Cl)ccc2nc1NC(=O)c1ccccc1NCc1ccc(O)nc1` [Example 28] are 172 °C, 500 nM and 50 nM.
